Data published in US20240173332A1, “BENZO[…] TREATING OR PREVENTING RESPIRATORY SYNCYTIAL VIRUS INFECTION” (Pfizer Inc., priority 2021, published 2024).
Structures can show the parent of a compound that is named as a salt. Where two headings read alike, the source gives them in different places.

Key:
RSV A2 = assay: RSV plaque reduction assay in Hep-G2 cells; assay type: cell-based, respiratory syncytial virus (RSV); conditions: Hep-G2 cells, RSV A2, 2 days, mean of at least two experiments, read-out: RSV A2 Plaque EC50
Method: Compounds were subjected to RSV plaque reduction assays according to the following protocol. Plaque EC50 and cell toxicity CC50 values are a mean of at least two experiments and figures are rounded to whole units.
Hep-G2 cells (ECACC, 85011430) were passaged in flasks and seeded in 24-well plates in DMEM containing antibiotics and supplemented with 10% FBS. During inoculation and subsequent incubation, cells were cultured in DMEM containing 2% FBS. 100 plaque forming unit/well of RSV (RSV A2 ECACC, 0709161v) was mixed with eight serial dilutions of compound. Subsequently, 100 μL of the virus/compound mixtures was added to confluent Hep-G2 cell monolayers. The cells and virus/compound mixtures were incubated at 37° C. in a humidified 5% CO2 incubator for 2 h prior to removal of the inoculum and addition of 1 mL of overlay (DMEM containing 2% FBS and 0.8% CMC) containing compound dilutions. The cells and were incubated at 37° C. in a humidified 5% CO2 incubator for 2 days.
Cells were washed with PBS before adding 75/25% v/v EtOH/MeOH, for 3 min. Fixative was removed and plates were washed with PBS. A pre-titrated amount of the primary antibody was added in 200 μL PBS/2% milk powder, and plates incubated for 90 min at 37° C. The plates were washed 3 times with PBS/0.05% Tween20 before addition of rabbit anti-goat horse radish peroxidase in 200 μL PBS/2% milk powder, and incubated for 1 h at 37° C. Following three wash steps with PBS/0.05% Tween20, 200 μL ready-to-use TrueBlue was added and plates were incubated at rt for 10-15 min before washing with water. After removal of water, plates were air-dried in the dark. Plates were scanned and analysed using the Immunospot S6 Macro analyser, which is equipped with BioSpot analysis software for counting immunostained plaques (virospots). Plaque counts were used to calculate % infection relative to the mean of the plaque count in the virus control wells for RSV. The EC50 value was calculated as 50% reduction in signal, respectively, by interpolation of inhibition curves fitted with a 4-parameter nonlinear regression with a variable slope in Dotmatics. Plaque EC50 and cell toxicity CC50 values are a mean of at least two experiments and figures are rounded to whole units.

Hep-G2 cells = assay: Cell cytotoxicity CC50; assay type: cell-based; conditions: mean of at least two experiments unless (n = 1)
[1] = Liver microsomal stability, human; assay type: in vitro ADME; conditions: 1 μM compound, NADPH; for half-life at 1 μM: pooled liver microsomes, pH 7.4, 0.5 mg/mL protein, read-out: Liver Microsomal Stability t1/2
Method: (§1) Compounds were subjected to the following assays to investigate liver microsomal stability and hepatocyte stability.
(§2) Pooled liver microsomes were purchased from a reputable commercial supplier and stored at −80° C. prior to use. Microsomes (final protein concentration 0.5 mg/mL), 0.1 M phosphate buffer pH 7.4 and test compound (final substrate concentration 1 μM; final DMSO concentration 0.25%) were pre-incubated at 37° C. prior to the addition of NADPH (final concentration 1 mM) to initiate the reaction. The final incubation volume was 50 μL. A control incubation was included for each compound tested where 0.1 M phosphate buffer pH 7.4 was added instead of NADPH (minus NADPH). Two control compounds were included with each species. All incubations were performed singularly for each test compound. Each compound was incubated for 0, 5, 15, 30 and 45 min. The control (minus NADPH) was incubated for 45 min only. The reactions were stopped by transferring incubate into acetonitrile at the appropriate time points, in a 1:3 ratio. The termination plates are centrifuged at 3,000 rpm for 20 min at 4° C. to precipitate the protein. Following protein precipitation, the sample supernatants were combined in cassettes of up to 4 compounds, internal standard added, and samples analysed by LC-MS/MS. From a plot of In peak area ratio (compound peak area/internal standard peak area) against time, the gradient of the line was determined. Subsequently, half-life (t1/2) and intrinsic clearance (CLint) were calculated.

[2] = Liver microsomal stability, rat; assay type: in vitro ADME; conditions: 1 μM compound, NADPH; for half-life at 1 μM: pooled liver microsomes, pH 7.4, 0.5 mg/mL protein, read-out: Liver Microsomal Stability t1/2
Method: as §1, §2

[3] = Liver microsomal stability, dog; assay type: in vitro ADME; conditions: 1 μM compound, NADPH; for half-life at 1 μM: pooled liver microsomes, pH 7.4, 0.5 mg/mL protein, read-out: Liver Microsomal Stability t1/2
Method: as §1, §2

Cell cytotoxicity CC50 = assay type: cell-based; conditions: human, Hep-G2 cells; mean of at least two experiments unless (n = 1)
[4] = human respiratory syncytial virus, HepG2, 48 h

Row | Compound | EC50 (RSV A2) [nM] | CC50 (Hep-G2 cells) [nM] | half-life at 1 μM [1] [h] | half-life at 1 μM [2] [h] | EC50 (RSV A2; [4]) [nM] | half-life at 1 μM [3] [h] | CC50 (Cell cytotoxicity CC50) [nM] | Liver Microsomal Stability t1/2 ([1]; human liver microsomes, 0.5 mg/mL protein) [h] | Liver Microsomal Stability t1/2 ([2]; rat liver microsomes, 0.5 mg/mL protein) [h] | Liver Microsomal Stability t1/2 ([3]; dog liver microsomes, 0.5 mg/mL protein) [h]
1 | CC(O)c1ccc(-c2nn3cccnc3c2C(=O)N[C@H]2N=C(c3ccccc3)c3ccccc3NC2=O)c(F)c1 (single isomer, unassigned) [Example 16-2, 2-[2-Fluoro-4-[(1R*)-1-hydroxyethyl]phenyl]-N-[(3S)-2-oxo-5-phenyl-1,3-dihydro-1,4-benzodiazepin-3-yl]pyrazolo[1,5-a]pyrimidine-3-carboxamide] | 11 | > 2500 |  |  |  |  |  |  |  | 
2 | CC(O)c1ccc(-c2nn3cccnc3c2C(=O)N[C@H]2N=C(c3ccccc3)c3cccc(F)c3NC2=O)c(F)c1 (single isomer, unassigned) [Example 17-2, 2-[2-Fluoro-4-[(1R*)-1-hydroxyethyl]phenyl]-N-[(3S)-9-fluoro-2-oxo-5-phenyl-1,3-dihydro-1,4-benzodiazepin-3-yl]pyrazolo[1,5-a]pyrimidine-3-carboxamide] | 7.8 | > 2500 |  |  |  |  |  |  |  | 
3 | CCn1cc(-c2nn3cccnc3c2C(=O)N[C@H]2N=C(c3ccccc3)c3cccc(F)c3NC2=O)cn1 [Example 13, 2-(1-Ethylpyrazol-4-yl)-N-[(3S)-9-fluoro-2-oxo-5-phenyl-1,3-dihydro-1,4-benzodiazepin-3-yl]pyrazolo[1,5-a]pyrimidine-3-carboxamide] |  |  | 8.93 | 7.52 | 58 | 6.82 | > 25000 |  |  | 
4 | CC(C)(O)c1ccc(-c2nn3cccnc3c2C(=O)N[C@H]2N=C(c3ccccc3)c3cccc(F)c3NC2=O)c(F)c1 [Example 19, 2-[2-Fluoro-4-(2-hydroxypropan-2-yl)phenyl]-N-[(3S)-9-fluoro-2-oxo-5-phenyl-1,3-dihydro-1,4-benzodiazepin-3-yl]pyrazolo[1,5-a]pyrimidine-3-carboxamide] |  |  | 2.82 | 2.43 | 8.5 | 1.22 | > 25000 |  |  | 
5 | O=C(N[C@H]1N=C(c2ccccc2)c2cccc(F)c2NC1=O)c1c(-c2cnn(C3CCOCC3)c2)nn2cccnc12 [Example 6, N-[(3S)-9-fluoro-2-oxo-5-phenyl-1,3-dihydro-1,4-benzodiazepin-3-yl]-2-[1-(oxan-4-yl)pyrazol-4-yl]pyrazolo[1,5-a]pyrimidine-3-carboxamide] |  |  | 4.32 | 1.42 | 49 | 2.07 | > 25000 |  |  | 
6 | O=C(N[C@H]1N=C(c2ccccc2)c2cccc(F)c2NC1=O)c1c(-c2cnn(CC(F)(F)F)c2)nn2cccnc12 [Example 3, N-[(3S)-9-fluoro-2-oxo-5-phenyl-1,3-dihydro-1,4-benzodiazepin-3-yl]-2-[1-(2,2,2-trifluoroethyl)pyrazol-4-yl]pyrazolo[1,5-a]pyrimidine-3-carboxamide] |  |  | > 2.33 | 3.48 | 66 | 1.78 | > 25000 |  |  | 
7 | 2-[2-Fluoro-4-(hydroxymethyl)phenyl]-N-[(3S)-2-oxo-5-phenyl-1,3-dihydro-1,4-benzodiazepin-3-yl]pyrazolo[1,5-a]pyrimidine-3-carboxamide [Example 2] | 40 | > 25000 |  |  |  |  |  | 1.95 | 0.957 | 0.887
8 | NCC(=O)OCc1ccc(-c2nn3cccnc3c2C(=O)N[C@H]2N=C(c3ccccc3)c3ccccc3NC2=O)c(F)c1 [Example 29, 3-Fluoro-4-(3-{[(3S)-2-oxo-5-phenyl-1,3-dihydro-1,4-benzodiazepin-3-yl]carbamoyl}pyrazolo[1,5-a]pyrimidin-2-yl)phenyl]methyl aminoacetate hydrochloride] | 49 | > 25000 |  |  |  |  |  |  |  | 
